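Step 1: Grow cells in 96-well plates. Step 2: Expose to compound for 48 hours at 5 concentrations. Step 3: Interpolate endpoints linearly; if unreached, use highest concentration. At the GI50, growth is halved. The concentration for full growth arrest is given as TGI.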
Key:
Assay in all cases: inhibition of tumour cell growth, NCI panel, 48 h
786-0 renal = system: 786-0 renal
A549 NSCLC = system: A549 NSCLC
ACHN renal = system: ACHN renal
CAKI-1 renal = system: CAKI-1 renal
COLO 205 colon = system: COLO 205 colon
DU-145 prostate = system: DU-145 prostate
EKVX NSCLC = system: EKVX NSCLC
HCC-2998 colon = system: HCC-2998 colon
HCT-116 colon = system: HCT-116 colon
HCT-15 colon = system: HCT-15 colon
HL-60(TB) leukemia = system: HL-60(TB) leukemia
HOP-62 NSCLC = system: HOP-62 NSCLC
HOP-92 NSCLC = system: HOP-92 NSCLC
HT29 colon = system: HT29 colon
IGROV1 ovarian = system: IGROV1 ovarian
KM12 colon = system: KM12 colon
LOX IMVI melanoma = system: LOX IMVI melanoma
M14 melanoma = system: M14 melanoma
MCF7 breast = system: MCF7 breast
MDA-MB-231 breast = system: MDA-MB-231 breast
MDA-MB-435 = system: MDA-MB-435
MDA-N = system: MDA-N
MOLT-4 leukemia = system: MOLT-4 leukemia
NCI-H226 lung = system: NCI-H226 lung
NCI-H23 lung = system: NCI-H23 lung
NCI-H460 lung = system: NCI-H460 lung
NCI/ADR-RES ovarian = system: NCI/ADR-RES ovarian
OVCAR-3 ovarian = system: OVCAR-3 ovarian
OVCAR-4 ovarian = system: OVCAR-4 ovarian
OVCAR-5 ovarian = system: OVCAR-5 ovarian
OVCAR-8 ovarian = system: OVCAR-8 ovarian
PC-3 prostate = system: PC-3 prostate
SF-295 CNS = system: SF-295 CNS
SF-539 CNS = system: SF-539 CNS
SK-MEL-2 melanoma = system: SK-MEL-2 melanoma
SK-MEL-28 melanoma = system: SK-MEL-28 melanoma
SK-MEL-5 melanoma = system: SK-MEL-5 melanoma
SK-OV-3 ovarian = system: SK-OV-3 ovarian
SN12C renal = system: SN12C renal
SNB-19 CNS = system: SNB-19 CNS
SNB-75 CNS = system: SNB-75 CNS
SW-620 colon = system: SW-620 colon
T-47D breast = system: T-47D breast
TK-10 renal = system: TK-10 renal
U251 CNS = system: U251 CNS
UACC-257 melanoma = system: UACC-257 melanoma
UO-31 renal = system: UO-31 renal
A498 renal = system: A498 renal
BT-549 breast = system: BT-549 breast
CCRF-CEM leukemia = system: CCRF-CEM leukemia
HS 578T breast = system: HS 578T breast
K-562 leukemia = system: K-562 leukemia
MALME-3M melanoma = system: MALME-3M melanoma
NCI-H522 lung = system: NCI-H522 lung
RPMI-8226 leukemia = system: RPMI-8226 leukemia
RXF 393 renal = system: RXF 393 renal
SF-268 CNS = system: SF-268 CNS
SR leukemia = system: SR leukemia
UACC-62 melanoma = system: UACC-62 melanoma

Compound: N#CCc1nc2ccccc2c(=O)[nH]1
- TGI (786-0 renal): > 100000 nM
- TGI (A549 NSCLC): > 100000 nM
- TGI (ACHN renal): > 100000 nM
- TGI (CAKI-1 renal): > 100000 nM
- TGI (COLO 205 colon): > 100000 nM
- TGI (DU-145 prostate): > 100000 nM
- TGI (EKVX NSCLC): > 100000 nM
- TGI (HCC-2998 colon): > 100000 nM
- TGI (HCT-116 colon): > 100000 nM
- TGI (HCT-15 colon): > 100000 nM
- TGI (HL-60(TB) leukemia): > 100000 nM
- TGI (HOP-62 NSCLC): > 100000 nM
- TGI (HOP-92 NSCLC): > 100000 nM
- TGI (HT29 colon): > 100000 nM
- TGI (IGROV1 ovarian): > 100000 nM
- TGI (KM12 colon): > 100000 nM
- TGI (LOX IMVI melanoma): > 100000 nM
- TGI (M14 melanoma): > 100000 nM
- TGI (MCF7 breast): > 100000 nM
- TGI (MDA-MB-231 breast): > 100000 nM
- TGI (MDA-MB-435): > 100000 nM
- TGI (MDA-N): > 100000 nM
- TGI (MOLT-4 leukemia): > 100000 nM
- TGI (NCI-H226 lung): > 100000 nM
- TGI (NCI-H23 lung): > 100000 nM
- TGI (NCI-H460 lung): > 100000 nM
- TGI (NCI/ADR-RES ovarian): > 100000 nM
- TGI (OVCAR-3 ovarian): > 100000 nM
- TGI (OVCAR-4 ovarian): > 100000 nM
- TGI (OVCAR-5 ovarian): > 100000 nM
- TGI (OVCAR-8 ovarian): > 100000 nM
- TGI (PC-3 prostate): > 100000 nM
- TGI (SF-295 CNS): > 100000 nM
- TGI (SF-539 CNS): > 100000 nM
- TGI (SK-MEL-2 melanoma): > 100000 nM
- TGI (SK-MEL-28 melanoma): > 100000 nM
- TGI (SK-MEL-5 melanoma): > 100000 nM
- TGI (SK-OV-3 ovarian): > 100000 nM
- TGI (SN12C renal): > 100000 nM
- TGI (SNB-19 CNS): > 100000 nM
- TGI (SNB-75 CNS): > 100000 nM
- TGI (SW-620 colon): > 100000 nM
- TGI (T-47D breast): > 100000 nM
- TGI (TK-10 renal): > 100000 nM
- TGI (U251 CNS): > 100000 nM
- TGI (UACC-257 melanoma): > 100000 nM
- TGI (UO-31 renal): > 100000 nM

Compound: O=C(NCCO)Nc1ccc(-c2nc(N3CCOCC3)c3cccn3n2)cc1
- GI50 (786-0 renal): 218 nM
- TGI (786-0 renal): 6140 nM
- GI50 (A498 renal): < 37.3 nM
- TGI (A498 renal): 125 nM
- GI50 (A549 NSCLC): 2070 nM
- TGI (A549 NSCLC): 18300 nM
- GI50 (ACHN renal): 61.4 nM
- TGI (ACHN renal): > 100000 nM
- GI50 (BT-549 breast): 72.9 nM
- TGI (BT-549 breast): 3600 nM
- GI50 (CAKI-1 renal): 1160 nM
- TGI (CAKI-1 renal): > 100000 nM
- GI50 (CCRF-CEM leukemia): 2980 nM
- TGI (CCRF-CEM leukemia): > 100000 nM
- GI50 (COLO 205 colon): 117 nM
- TGI (COLO 205 colon): 9080 nM
- GI50 (DU-145 prostate): 232 nM
- TGI (DU-145 prostate): > 58500 nM
- GI50 (EKVX NSCLC): 183 nM
- TGI (EKVX NSCLC): 8470 nM
- GI50 (HCC-2998 colon): 488 nM
- TGI (HCC-2998 colon): > 100000 nM
- GI50 (HCT-116 colon): 1850 nM
- TGI (HCT-116 colon): > 100000 nM
- GI50 (HCT-15 colon): 359 nM
- TGI (HCT-15 colon): > 100000 nM
- GI50 (HL-60(TB) leukemia): 2210 nM
- TGI (HL-60(TB) leukemia): > 100000 nM
- GI50 (HOP-62 NSCLC): 122 nM
- TGI (HOP-62 NSCLC): 3850 nM
- GI50 (HOP-92 NSCLC): 46.6 nM
- TGI (HOP-92 NSCLC): 1090 nM
- GI50 (HS 578T breast): 88.9 nM
- TGI (HS 578T breast): 836 nM
- GI50 (HT29 colon): 496 nM
- TGI (HT29 colon): > 100000 nM
- GI50 (IGROV1 ovarian): 167 nM
- TGI (IGROV1 ovarian): 1080 nM
- GI50 (K-562 leukemia): 2800 nM
- TGI (K-562 leukemia): > 100000 nM
- GI50 (KM12 colon): 579 nM
- TGI (KM12 colon): > 100000 nM
- GI50 (LOX IMVI melanoma): 693 nM
- TGI (LOX IMVI melanoma): 35300 nM
- GI50 (M14 melanoma): 189 nM
- TGI (M14 melanoma): > 65500 nM
- TGI (MALME-3M melanoma): 50.6 nM
- GI50 (MCF7 breast): 70.3 nM
- TGI (MCF7 breast): > 100000 nM
- GI50 (MDA-MB-231 breast): 172 nM
- TGI (MDA-MB-231 breast): 14600 nM
- GI50 (MDA-MB-435): 188 nM
- TGI (MDA-MB-435): > 28100 nM
- GI50 (MOLT-4 leukemia): 217 nM
- TGI (MOLT-4 leukemia): > 49200 nM
- GI50 (NCI-H226 lung): 130 nM
- TGI (NCI-H226 lung): 6330 nM
- GI50 (NCI-H23 lung): 239 nM
- TGI (NCI-H23 lung): > 100000 nM
- GI50 (NCI-H460 lung): 190 nM
- TGI (NCI-H460 lung): > 100000 nM
- GI50 (NCI-H522 lung): 83.3 nM
- TGI (NCI-H522 lung): > 100000 nM
- GI50 (NCI/ADR-RES ovarian): 2250 nM
- TGI (NCI/ADR-RES ovarian): > 33700 nM
- GI50 (OVCAR-3 ovarian): 170 nM
- TGI (OVCAR-3 ovarian): 9820 nM
- GI50 (OVCAR-4 ovarian): 89.2 nM
- TGI (OVCAR-4 ovarian): 3750 nM
- GI50 (OVCAR-5 ovarian): 138 nM
- TGI (OVCAR-5 ovarian): 20700 nM
- GI50 (OVCAR-8 ovarian): 257 nM
- TGI (OVCAR-8 ovarian): 21100 nM
- GI50 (PC-3 prostate): 103 nM
- TGI (PC-3 prostate): > 100000 nM
- GI50 (RPMI-8226 leukemia): 405 nM
- TGI (RPMI-8226 leukemia): > 54600 nM
- GI50 (RXF 393 renal): 68.6 nM
- TGI (RXF 393 renal): 1390 nM
- GI50 (SF-268 CNS): 164 nM
- TGI (SF-268 CNS): > 95900 nM
- GI50 (SF-295 CNS): 117 nM
- TGI (SF-295 CNS): 2130 nM
- GI50 (SF-539 CNS): 315 nM
- TGI (SF-539 CNS): 5720 nM
- GI50 (SK-MEL-2 melanoma): 256 nM
- TGI (SK-MEL-2 melanoma): 5090 nM
- GI50 (SK-MEL-28 melanoma): 108 nM
- TGI (SK-MEL-28 melanoma): 4590 nM
- GI50 (SK-MEL-5 melanoma): 236 nM
- TGI (SK-MEL-5 melanoma): 3670 nM
- GI50 (SK-OV-3 ovarian): 60.2 nM
- TGI (SK-OV-3 ovarian): 291 nM
- GI50 (SN12C renal): 567 nM
- TGI (SN12C renal): > 100000 nM
- GI50 (SNB-19 CNS): 2140 nM
- TGI (SNB-19 CNS): > 100000 nM
- GI50 (SNB-75 CNS): 44.5 nM
- TGI (SNB-75 CNS): 1080 nM
- GI50 (SR leukemia): 232 nM
- TGI (SR leukemia): > 100000 nM
- GI50 (SW-620 colon): 1650 nM
- TGI (SW-620 colon): > 100000 nM
- GI50 (T-47D breast): < 21.2 nM
- TGI (T-47D breast): 125 nM
- GI50 (TK-10 renal): 93.5 nM
- TGI (TK-10 renal): 2640 nM
- GI50 (U251 CNS): 1010 nM
- TGI (U251 CNS): > 95100 nM
- GI50 (UACC-257 melanoma): 149 nM
- TGI (UACC-257 melanoma): 4290 nM
- GI50 (UACC-62 melanoma): 80.9 nM
- TGI (UACC-62 melanoma): 1840 nM
- GI50 (UO-31 renal): 57.3 nM
- TGI (UO-31 renal): 1630 nM

Reference: PubChem BioAssay (NCI)
